Each structure is given as a SMILES string. Where a name gives a salt, the structure may show the parent alone. Calls of active or inactive are those of the source. No cut-off for these calls is given here.

One assay has as its system A549. As to the kind of experiment: Cytotoxicity against human A549 cells assessed as decrease in cell viability by MTT assay. Type of assay: functional, cell-based. (In general: Tetrazolium assays rely on reduction of a dye to a coloured formazan, in cell work by metabolically active cells.)
Another assay concerns HeLa. As to the kind of experiment: Cytotoxicity against human HeLa cells assessed as decrease in cell viability by MTT assay. Type of assay: functional, cell-based.
The next assay has as its system Vibrio parahaemolyticus. As to the kind of experiment: Antibacterial activity against Vibrio parahaemolyticus ATCC 17802 at 20 uM. In kind it is functional, organism-based.
For the next assay, the system named is HepG2. As to the kind of experiment: Cytotoxicity against human HepG2 cells assessed as decrease in cell viability by MTT assay. Type of assay: functional, cell-based.
The next assay has as its system Bacillus cereus. Put plainly: Antibacterial activity against Bacillus cereus ATCC 11778 at 20 uM. Type of assay: functional, organism-based.
The test system of the next assay is Vibrio alginolyticus. As to the kind of experiment: Antibacterial activity against Vibrio alginolyticus ATCC 17749 at 20 uM. Type of assay: functional, organism-based.
Assay [1] deals with Staphylococcus aureus. As to the kind of experiment: Antibacterial activity against methicillin-resistant Staphylococcus aureus ATCC 33591 at 20 uM. In kind it is functional, organism-based.
The next assay deals with Escherichia coli. Put plainly: Antibacterial activity against Escherichia coli ATCC 25922 at 20 uM. In kind it is functional, organism-based.
Assay [2] deals with Staphylococcus aureus. Put plainly: Antibacterial activity against Staphylococcus aureus ATCC 25923 at 20 uM. Type of assay: functional, organism-based.

By IC50 is commonly meant the concentration needed to halve the response being measured. Turning to `O=c1[nH]cc(F)c(=O)[nH]1` [FLUOROURACIL], the half-inhibitory concentration (IC50) in the assay with A549 turned out to be 36.8 µM; in the assay on HeLa, 28 µM.

As to `CC(C)=CCC[C@@]12C(=O)CC[C@@H](C)[C@]1(C)CC[C@@](C)(O)[C@H]2Cc1c[nH]c2ccccc12`, the IC50 stood at 18.6 µM in the assay on A549, 47.2 µM in the assay with HepG2 and 20 µM in the assay with HeLa. For the same compound, the outcome with Vibrio parahaemolyticus, in the assay with Bacillus cereus, in the assay with Vibrio alginolyticus, with Staphylococcus aureus [1], in the assay with Escherichia coli and in the assay with Staphylococcus aureus [2] was inactive.

As to `COc1cccc2c1C(=O)c1c(O)c3c(c(O)c1C2=O)C[C@@](O)(C(=O)CO)C[C@@H]3O[C@H]1C[C@H](N)[C@H](O)[C@H](C)O1` [DOXORUBICIN HYDROCHLORIDE], the concentration for half-maximal inhibition (IC50) in the assay with HeLa stood at 0.1 µM.

`CC(C)=CCC[C@@]12[C@@H](O)CC[C@@H](C)[C@]1(C)CC[C@@](C)(O)[C@H]2Cc1c[nH]c2ccccc12`: the half-maximal inhibitory concentration (IC50) was 5.5 µM in the assay on A549, 1.5 µM in the assay with HepG2 and 23.3 µM in the assay with HeLa. Besides, the result in the assay on Vibrio parahaemolyticus, with Bacillus cereus, in the assay on Vibrio alginolyticus, in the assay with Staphylococcus aureus [1], in the assay with Escherichia coli and in the assay on Staphylococcus aureus [2] was inactive.

The record behind these values is ChEMBL document CHEMBL4251672, “Penicilindoles A-C, Cytotoxic Indole Diterpenes from the Mangrove-Derived Fungus Eupenicillium sp. HJ002” (J Nat Prod, 2018).
